Measurements reported in US20150259331A1, “PROTOZOAN PARASITE GROWTH INHIBITORS” (Northeastern University, priority 2014, published 2015).
Read-outs that look alike come from different tables or passages of the source.

Columns and labels:
[1] = tested on: T. brucei brucei Lister 427; settings: published activities of HAT treatments and SCYX-7158; read-out: Tbb EC50; cited from earlier work
[2] = Protein binding (Table 14); settings: plasma
T. cruzi = T. cruzi growth inhibition; assay type: cell-based, Trypanosoma cruzi
P. fal = P. fal assay of Table 13 (strain not given); assay type: cell-based, P. falciparum
[3] = Human liver microsomes CLint
L. major amastigote = L. major amastigote assay; assay type: cell-based
[4] = Thermodynamic aqueous solubility; assay type: physicochemical
[5] = tested on: T. brucei brucei Lister 427; assay: Trypanosome replication assay; assay type: cell-based, Trypanosoma brucei brucei; settings: for EC50: 48 h, concentration giving 50% inhibition of growth of T brucei brucei Lister 427 cells, values ±7%, read-out: Tbb EC50; for inhibition at 5 µM: read-out: Tbb % inh at 5 μM
[6] = Male rat hepatocytes CLint
L. major promastigote = L. major promastigote assay; assay type: cell-based
logD = assay type: physicochemical
HepG2 cells = assay: HepG2 cell toxicity (MTT) assay; assay type: cell-based; settings: Table 13; read-out: HepG2 TC50
[7] = not given; remark: listed apart in the source
[8] = HepG2 cell toxicity (MTT) assay; assay type: cell-based; settings: human, HepG2 cells; Table 13; read-out: HepG2 TC50
[9] = tested on: endocytosis of transferrin; assay: Receptor-mediated endocytosis of transferrin in the trypanosome; assay type: cell-based, T. brucei
in vitro = settings: male, BALB/c, mouse
Method: Mice plasma (BALB/c mice, male—pool of 3 animals) was collected in-house using K2EDTA as anticoagulant. […] Glipizide (Cat #50402G) was purchased from Apin chemicals, Abingdon, Oxon. Albendazole (Cat #A4673) was purchased from Sigma. Phosphate buffered saline pH 7.4 (0.1 M sodium phosphate and 0.15 M sodium chloride) and RED device inserts were procured from Thermo Scientific, Meridian Rd., Rockford, Ill.
Further 1 mM stock was diluted 200-fold in mice plasma to prepare a concentration of 5 μM. The final DMSO concentration in plasma was 0.5%.
Rapid equilibrium dialysis was performed with a rapid equilibrium dialysis (RED) device containing dialysis membrane with a molecular weight cut-off of 8,000 Daltons. Each dialysis insert contains two chambers. The red chamber is for plasma while the white chamber is for buffer. A 200 μL aliquot of warfarin or test compound at 5 μM (triplicates) was separately added to the plasma chamber and 350 μL of phosphate buffer saline (pH 7.4) was added to the buffer chamber of the inserts. After sealing the RED device with an adhesive film, dialysis was performed at 37° C. with shaking at 100 rpm for 4 hours as per manufacturer's recommendation.
Recovery and stability: A 50 μL aliquot of warfarin or test compound was added to four 0.5 mL microfuse tubes. Two aliquots were frozen immediately (0 minute sample). The other two aliquots were incubated at 37° C. for 4 hours along with the RED device.
Following dialysis, an aliquot of 50 μL was removed from each well (both plasma and buffer side) and diluted with equal volume of opposite matrix (dialyzed with the other matrix) to nullify the matrix effect. Similarly, 50 μL of buffer was added to recovery and stability samples. An aliquot of 100 μL was submitted for LC-MS/MS analysis.
A 25 μL aliquot of warfarin and test compounds were crashed with 100 μL of acetonitrile containing internal standard (glipizide for warfarin and test compound) and vortexed for 5 minutes. The samples were centrifuged at 15,000 rpm at 4° C. for 10 min and 100 μL of supernatant was submitted for LCMS/MS analysis. Samples were monitored for parent compound in MRM mode using LC-MS/MS.

EC50 (T. cruzi; Trypanosoma cruzi) [µM] | EC50 (P. fal; Plasmodium falciparum) [µM] | EC50 (L. major amastigote; Leishmania major) [µM] | EC50 ([5]; Trypanosoma brucei) [µM] | EC50 (L. major promastigote; Leishmania major) [µM] | Structure (SMILES) | CC50 (HepG2 cells) [µM] | also measured
 |  |  |  |  | N=C(N)c1ccc(OCCCCCOc2ccc(C(=N)N)cc2)cc1 [pentamidine] |  | EC50 [1]: 0.0035 µM
49 | 0.032 | > 3 | 2.1 | 0.2 | O=S(=O)(c1ccc(-c2ccc3nccc(Nc4ccc(OCc5ccccc5)c(Cl)c4)c3c2)cc1)N1CCOCC1 [NEU-945, N-(4-(Benzyloxy)-3-chlorophenyl)-6-(4-(morpholinosulfonyl)phenyl)quinolin-4-amine] | > 5 | fraction unbound [2]: < 0.01; Human liver microsomes median CLint [3]: 78.87 µL/min/mg; Solubility [4]: <1 µM; Male rat hepatocytes median CLint [6]: 13.93 μl/min/1E6 cells; logD (logD): 3.5
0.73 | 0.019 | 1.6 | 0.079 | 1 | CN1CCN(S(=O)(=O)c2ccc(-c3ccc4c(Nc5ccc(OCc6cccc(F)c6)c(Cl)c5)ccnc4c3)cc2)CC1 [NEU-961, N-(3-Chloro-4-((3-fluorobenzyl)oxy)phenyl)-7-(4-((4-methylpiperazin-1-yl)sulfonyl)phenyl)quinolin-4-amine] | > 4 | fraction unbound [2]: < 0.01; Human liver microsomes median CLint [3]: 142.7 µL/min/mg; Male rat hepatocytes median CLint [6]: 20.24 μl/min/1E6 cells
 |  |  |  |  | CN1CCCN(S(=O)(=O)c2ccc(-c3ccc4ncc(C#N)c(Nc5ccc(OCc6cccc(F)c6)c(Cl)c5)c4c3)cc2)CC1 [NEU-924] | > 15 | EC50 (T. cruzi): 0.09 µM; EC50 (P. fal): 0.047 µM; Human liver microsomes median CLint: 151.8 µL/min/mg; Male rat hepatocytes median CLint [7]: 37.95 μl/min/1E6 cells; EC50 (L. major amastigote): 1.6 µM; EC50 [5]: 0.35 µM; EC50 (L. major promastigote): 0.92 µM
15 | 0.15 | > 15 | 1.2 | > 15 | O=S(=O)(c1ccc(-c2ccc3c(Nc4ccc(OCc5ccccc5)c(Cl)c4)cnnc3c2)cc1)N1CCOCC1 [NEU-1015, N-(4-(Benzyloxy)-3-chlorophenyl)-7-(4-(morpholinosulfonyl)phenyl)cinnolin-4-amine] | > 11 | 
6.6 | 0.035 | 4 | 1 | 0.9 | Fc1cccc(COc2ccc(Nc3ccnc4ccc(-c5cccc(N6CCOCC6)c5)cc34)cc2Cl)c1 [NEU-959, N-(3-Chloro-4-((3-fluorobenzyl)oxy)phenyl)-6-(3-morpholinophenyl)quinolin-4-amine] | 10 | 
> 50 | 0.87 | > 15 | > 2.5 | > 15 | O=S(=O)(c1ccc(-c2ccc3ccnc(Nc4ccc(OCc5ccccc5)c(Cl)c4)c3c2)cc1)N1CCOCC1 [NEU-949, N-(4-(Benzyloxy)-3-chlorophenyl)-7-(4-(morpholinosulfonyl)phenyl)isoquinolin-1-amine] |  | CC50 at 48 h [8]: > 15 µM
49 | 0.003 | 0.24 | 0.21 | 6.4 | CN1CCCN(S(=O)(=O)c2ccc(-c3ccc4c(Nc5ccc(OCc6cccc(F)c6)c(Cl)c5)cnnc4c3)cc2)CC1 [NEU-1017, N-(3-Chloro-4-((3-fluorobenzyl)oxy)phenyl)-7-(4-((4-methyl-1,4-diazepan-1-yl)sulfonyl)phenyl)cinnolin-4-amine] | 15 | fraction unbound [2]: < 0.01; Human liver microsomes median CLint [3]: 99.32 µL/min/mg; Solubility [4]: <1 µM; Male rat hepatocytes median CLint [6]: 36.72 μl/min/1E6 cells
> 50 | 0.54 | > 15 | 1.1 | > 15 | Fc1cccc(COc2ccc(Nc3cnnc4ccc(-c5cccc(N6CCOCC6)c5)cc34)cc2Cl)c1 [NEU-1012, N-(3-Chloro-4-((3-fluorobenzyl)oxy)phenyl)-6-(3-morpholinophenyl)cinnolin-4-amine] | > 15 | 
> 50 | 2.8 | 2.2 |  | > 15 | Fc1cccc(COc2ccc(Nc3nccc4cc(-c5cccc(N6CCOCC6)c5)ccc34)cc2Cl)c1 [NEU-946, N-(3-Chloro-4-((3-fluorobenzyl)oxy)phenyl)-6-(3-morpholinophenyl)isoquinolin-1-amine] |  | inhibition at 5 µM ([5]; Trypanosoma brucei): 12%; CC50 at 48 h [8]: > 15 µM
> 50 | 0.82 | > 15 | 1.2 | > 15 | O=S(=O)(c1ccc(-c2ccc3nncc(Nc4ccc(OCc5ccccc5)c(Cl)c4)c3c2)cc1)N1CCOCC1 [NEU-1002, N-(4-(Benzyloxy)-3-chlorophenyl)-6-(4-(morpholinosulfonyl)phenyl)cinnolin-4-amine] | > 15 | 
 |  |  |  |  | CS(=O)(=O)CCNCc1ccc(-c2ccc3ncnc(Nc4ccc(OCc5cccc(F)c5)c(Cl)c4)c3c2)o1 [Compound 1, lapatinib, reference compound] |  | effect on endocytosis of transferrin [9]: inhibited endocytosis of transferrin
 |  |  |  |  | CC(=O)CC(c1ccccc1)c1c(O)c2ccccc2oc1=O (stereo not drawn) [Warfarin] |  | recovery at 4 h, 5 μM (in vitro; pH 7.4): 95%; % compound remaining at 4 h (in vitro; plasma, 4 h, 5 μM): 100%; fraction unbound at 4 h, 5 μM (in vitro; plasma, pH 7.4, % Bound Mean (SD)): 0.156; fraction unbound at 4 h, 5 μM (in vitro; plasma, pH 7.4, % Bound R1): 0.051; fraction unbound at 4 h, 5 μM (in vitro; plasma, pH 7.4, % Bound R2): 0.058; fraction unbound at 4 h, 5 μM (in vitro; plasma, pH 7.4, % Bound R3): 0.059
2.2 | 0.027 | 1.06 | 0.58 | 4.1 | CN1CCCN(S(=O)(=O)c2ccc(-c3ccc4nncc(Nc5ccc(OCc6cccc(F)c6)c(Cl)c5)c4c3)cc2)CC1 [NEU-1013, N-(3-Chloro-4-((3-fluorobenzyl)oxy)phenyl)-6-(4-((4-methyl-1,4-diazepan-1-yl)sulfonyl)phenyl)cinnolin-4-amine] | 7.3 | 
 |  |  |  |  | Nc1nc(N)nc(Nc2ccc([As]3SCC(CO)S3)cc2)n1 (stereo not drawn) [melarsoprol] |  | EC50 [1]: 0.0063 µM
> 50 | 3.4 | > 3 | 0.091 | > 15 | O=S(=O)(c1ccc(-c2ccc3c(Nc4ccc(OCc5ccccc5)c(Cl)c4)nccc3c2)cc1)N1CCOCC1 [NEU-948, N-(4-(Benzyloxy)-3-chlorophenyl)-6-(4-(morpholinosulfonyl)phenyl)isoquinolin-1-amine] | > 5 | 
 |  |  |  |  | CC1(C)OB(O)c2cc(NC(=O)c3ccc(F)cc3C(F)(F)F)ccc21 [SCYX-7158] |  | EC50 [1]: 0.794 µM
> 50 | 2.5 | 6 |  | > 15 | Fc1cccc(COc2ccc(Nc3nccc4ccc(-c5cccc(N6CCOCC6)c5)cc34)cc2Cl)c1 [NEU-947, N-(3-Chloro-4-((3-fluorobenzyl)oxy)phenyl)-7-(3-morpholinophenyl)isoquinolin-1-amine] |  | inhibition at 5 µM ([5]; Trypanosoma brucei): 0.1%; CC50 at 48 h [8]: > 15 µM
